{
  "source": "patent US8470830B2",
  "about": "“5-(heterocyclyl)alkyl-N-(arylsulfonyl)indole compounds and their use as 5-HT6 ligands” (Suven Life Sciences Limited, priority 2007, dated 2013)",
  "key": {"Human 5-HT6 Receptor": {"target": "T1, Human 5-HT6 Receptor (Homo sapiens, UniProt P50406)", "T1 construct": "expressed in transfected cells; host or cells: HEK293", "T1 sequence (P50406 whole entry)": "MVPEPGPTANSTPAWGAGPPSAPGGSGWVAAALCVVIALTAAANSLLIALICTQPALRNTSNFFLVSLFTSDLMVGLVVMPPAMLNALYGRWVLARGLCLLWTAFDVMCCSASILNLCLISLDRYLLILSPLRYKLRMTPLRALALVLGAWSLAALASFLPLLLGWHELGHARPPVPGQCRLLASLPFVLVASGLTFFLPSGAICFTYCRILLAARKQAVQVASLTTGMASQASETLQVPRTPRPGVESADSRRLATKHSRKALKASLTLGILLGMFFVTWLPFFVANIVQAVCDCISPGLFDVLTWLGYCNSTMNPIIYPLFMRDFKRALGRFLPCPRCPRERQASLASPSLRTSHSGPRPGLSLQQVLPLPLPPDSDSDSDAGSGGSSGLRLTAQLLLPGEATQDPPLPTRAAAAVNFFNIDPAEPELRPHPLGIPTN", "experiment": "Binding assay for human 5-HT6 receptor ([3H]LSD radioligand)", "description": "Compounds can be tested according to the following the procedures.\nReceptor source: Human recombinant expressed in HEK293 cells\nRadioligand [^3H]LSD (60-80 Ci/mmol)\nNon-specific determinant: Methiothepin mesylate—[0.1 μM]\nReference compound: Methiothepin mesylate\nPositive control: Methiothepin mesylate\nReactions were carried out in […] TRIS-HCl (pH 7.4) containing 10 μM MgCl2, 0.5 mM EDTA for 60 minutes at 37° C. The reaction was terminated by rapid vacuum filtration onto glass fiber filters. Radioactivity trapped onto the filters was determined and compared to control values in order to ascertain any interactions of test compound(s) with the cloned serotonin 5-HT6 binding site.\nLiterature Reference: Monsma F. J. Jr., et al., Molecular Cloning and Expression of Novel Serotonin Receptor with High Affinity for Tricyclic Psychotropic Drugs."}, "[1]": {"test_system": "animal models for schizophrenia", "details": "literature (Pouzet et al. 2002); cited from earlier work"}, "5-HT6 receptor": {"test_system": "5-HT6 receptor", "details": "literature; cited from earlier work"}, "[2]": {"details": "human recombinant receptor in HEK293 cells, [3H]LSD 1.5 nM, 60 minutes at 37° C., read-out: Radio-ligand binding data at 5-HT6 (h) Ki"}},
  "note": "Where a name gives a salt, the structure may show the parent alone. Read-outs that look alike come from different tables or passages of the source.",
  "data": [
    {"compound": "CCN1CCN(Cc2ccc3c(ccn3S(=O)(=O)c3ccc(F)cc3F)c2)CC1.Cl.Cl", "note": "[Compound 10, 1-(2,4-Difluorobenzenesulfonyl)-5-(4-ethylpiperazin-1-ylmethyl)-1H-indole dihydrochloride]", "values": [
      {"measurement": "Ki", "setting": "Human 5-HT6 Receptor; [2]", "value": 12.4, "unit": "nM"},
      {"measurement": "melting point", "value": "271 to 274.5", "unit": "°C"}
    ]},
    {"compound": "CCN1CCN(Cc2ccc3c(ccn3S(=O)(=O)c3ccc(Br)cc3)c2)CC1.Cl.Cl", "values": [
      {"measurement": "melting point", "value": "264.5 to 267", "unit": "°C"}
    ]},
    {"compound": "CCN1CCN(Cc2ccc3c(ccn3S(=O)(=O)c3ccc(F)cc3)c2)CC1.Cl.Cl", "note": "[Compound 7, 1-(4-Fluorobenzenesulfonyl)-5-(4-ethylpiperazin-1-ylmethyl)-1H-indole dihydrochloride]", "values": [
      {"measurement": "Ki", "setting": "Human 5-HT6 Receptor; [2]", "value": 3.21, "unit": "nM"},
      {"measurement": "melting point", "value": "265 to 270", "unit": "°C"}
    ]},
    {"compound": "Cl.Cl.O=S(=O)(c1ccc(F)cc1)n1cc(Cl)c2cc(CN3CCNCC3)ccc21", "note": "[Compound 30, 1-(4-Fluorobenzenesulfonyl)-3-chloro-5-(piperazin-1-ylmethyl)-1H-indole dihydrochloride]", "values": [
      {"measurement": "Ki", "setting": "Human 5-HT6 Receptor; [2]", "value": 2.58, "unit": "nM"},
      {"measurement": "melting point", "value": "254 to 259.6", "unit": "°C"}
    ]},
    {"compound": "CN1CCN(Cc2ccc3c(ccn3S(=O)(=O)c3cc(C(F)(F)F)ccc3Cl)c2)CC1", "note": "[Compound 19, 1-(2-Chloro-5-trifluoromethylbenzenesulfonyl)-5-(4-methylpiperazin-1-ylmethyl)-1H-indole]", "values": [
      {"measurement": "Ki", "setting": "Human 5-HT6 Receptor; [2]", "value": 11.3, "unit": "nM"}
    ]},
    {"compound": "CCN1CCN(Cc2ccc3c(ccn3S(=O)(=O)c3ccccc3Br)c2)CC1.Cl.Cl", "note": "[Compound 15, 1-(2-Bromobenzenesulfonyl)-5-(4-ethylpiperazin-1-ylmethyl)-1H-indole dihydrochloride]", "values": [
      {"measurement": "Ki", "setting": "Human 5-HT6 Receptor; [2]", "value": 2.56, "unit": "nM"},
      {"measurement": "melting point", "value": "255.5 to 259", "unit": "°C"}
    ]},
    {"compound": "CC(C)c1ccc(S(=O)(=O)n2ccc3cc(CN4CCN(C)CC4)ccc32)cc1", "note": "[Compound 5, 1-[4-(1-Methylethyl)benzenesulfonyl]-5-(4-methylpiperazin-1-ylmethyl)-1H-indole]", "values": [
      {"measurement": "Ki", "setting": "Human 5-HT6 Receptor; [2]", "value": 17.9, "unit": "nM"}
    ]},
    {"compound": "CN1CCN(Cc2ccc3c(c2)c(Cl)cn3S(=O)(=O)c2ccc(F)cc2)CC1", "note": "[Compound 25, 1-(4-Fluorobenzenesulfonyl)-3-chloro-5-(4-methylpiperazin-1-ylmethyl)-1H-indole]", "values": [
      {"measurement": "Ki", "setting": "Human 5-HT6 Receptor; [2]", "value": 2.97, "unit": "nM"},
      {"measurement": "melting point", "value": "118.8 to 120.1", "unit": "°C"}
    ]},
    {"compound": "CN1CCN(Cc2ccc3c(c2)c(Cl)cn3S(=O)(=O)c2cc(C(F)(F)F)ccc2Cl)CC1", "note": "(as salt: hydrochloride) [Compound 27, 1-(2-Chloro-5-trifluoromethylbenznesulfonyl)-3-chloro-5-(4-methylpiperazin-1-ylmethyl)-1H-indole dihydrochloride]", "values": [
      {"measurement": "melting point", "value": "287 to 290", "unit": "°C"}
    ]},
    {"compound": "CC(C)c1ccc(S(=O)(=O)n2ccc3cc(CN4CCNCC4)ccc32)cc1.Cl.Cl", "note": "[Compound 34, 1-[4-(1-Methylethyl)benzenesulfonyl]-5-(piperazin-1-ylmethyl)-1H-indole dihydrochloride]", "values": [
      {"measurement": "Ki", "setting": "Human 5-HT6 Receptor; [2]", "value": 14.9, "unit": "nM"},
      {"measurement": "melting point", "value": "250 to 254", "unit": "°C"}
    ]},
    {"compound": "CCN1CCN(Cc2ccc3c(ccn3S(=O)(=O)c3ccc(Cl)cc3)c2)CC1.Cl.Cl", "values": [
      {"measurement": "melting point", "value": "265 to 269", "unit": "°C"}
    ]},
    {"compound": "Cl.Cl.O=S(=O)(c1ccc(F)cc1F)n1cc(Cl)c2cc(CN3CCNCC3)ccc21", "note": "[Compound 32, 1-(2,4-Difluorobenzenesulfonyl)-3-chloro-5-(piperazin-1-ylmethyl)-1H-indole dihydrochloride]", "values": [
      {"measurement": "Ki", "setting": "Human 5-HT6 Receptor", "value": 5.77, "unit": "nM"},
      {"measurement": "melting point", "value": "241.5 to 246.1", "unit": "°C"}
    ]},
    {"compound": "Cl.Cl.O=S(=O)(c1ccccc1Br)n1ccc2cc(CN3CCNCC3)ccc21", "note": "[Compound 31, 1-(2-Bromobenzenesulfonyl)-5-(piperazin-1-ylmethyl)-1H-indole dihydrochloride]", "values": [
      {"measurement": "Ki", "setting": "Human 5-HT6 Receptor; [2]", "value": 7.77, "unit": "nM"},
      {"measurement": "melting point", "value": "264.2 to 266.9", "unit": "°C"}
    ]},
    {"compound": "COc1ccc(NS(=O)(=O)c2sc3ccc(Cl)cc3c2C)cc1N1CCNCC1", "note": "[SB-271046, 5-Chloro-N-(4-methoxy-3-piperazin-1-ylphenyl)-3-methyl-2-benzothiophenesulfonamide]", "values": [
      {"measurement": "activity in animal tests related to positive or negative symptoms of schizophrenia", "setting": "[1]", "value": "inactive"}
    ]},
    {"compound": "CN1CCN(Cc2ccc3c(ccn3S(=O)(=O)c3ccc(F)cc3)c2)CC1", "note": "[Compound 3, 1-(4-Fluorobenzenesulfonyl)-5-(4-methylpiperazin-1-ylmethyl)-1H-indole]", "values": [
      {"measurement": "Ki", "setting": "Human 5-HT6 Receptor; [2]", "value": 14.6, "unit": "nM"}
    ]},
    {"compound": "CN1CCN(Cc2ccc3c(c2)c(Cl)cn3S(=O)(=O)c2cc(C(F)(F)F)ccc2Cl)CC1", "note": "[Compound 27, 1-(2-Chloro-5-trifluoromethylbenznesulfonyl)-3-chloro-5-(4-methylpiperazin-1-ylmethyl)-1H-indole dihydrochloride]", "values": [
      {"measurement": "Ki", "setting": "Human 5-HT6 Receptor; [2]", "value": 4.16, "unit": "nM"}
    ]},
    {"compound": "CC(C)Oc1c(CN2CCN(C)CC2)ccc2c1ccn2S(=O)(=O)c1ccc(F)cc1", "note": "[Compound 28, 1-(4-Fluorobenznesulfonyl)-4-isopropoxy-5-(4-methylpiperazin-1-ylmethyl)-1H-indole]", "values": [
      {"measurement": "Ki", "setting": "Human 5-HT6 Receptor; [2]", "value": 276, "unit": "nM"}
    ]},
    {"compound": "CCN1CCN(Cc2ccc3c(ccn3S(=O)(=O)c3ccccc3)c2)CC1.Cl.Cl", "values": [
      {"measurement": "melting point", "value": "266 to 270.5", "unit": "°C"}
    ]},
    {"compound": "CN1CCN(Cc2ccc3c(ccn3S(=O)(=O)c3ccccc3)c2)CC1.Cl.Cl", "note": "[Compound 1, 1-Benzenesulfonyl-5-(4-methylpiperazin-1-ylmethyl)-1H-indole dihydrochloride]", "values": [
      {"measurement": "Ki", "setting": "Human 5-HT6 Receptor; [2]", "value": 3.83, "unit": "nM"},
      {"measurement": "melting point", "value": "266 to 270.5", "unit": "°C"}
    ]},
    {"compound": "CN1CCN2c3ccccc3Cc3ccccc3C2C1", "note": "(stereo not drawn) [mianserin]", "values": [
      {"measurement": "affinity for the 5-HT6 receptor", "setting": "5-HT6 receptor", "value": "high affinity"}
    ]},
    {"compound": "CCN1CCN(Cc2ccc3c(ccn3S(=O)(=O)c3ccc(OC)cc3)c2)CC1.Cl.Cl", "values": [
      {"measurement": "melting point", "value": "254 to 258", "unit": "°C"}
    ]},
    {"compound": "CCN1CCN(Cc2ccc3c(ccn3S(=O)(=O)c3ccc(C(C)C)cc3)c2)CC1.Cl.Cl", "note": "[Compound 8, 1-[4-{1-Methylethyl)benzenesulfonyl]-5-(4-ethylpiperazin-1-ylmethyl)-1H-indole dihydrochloride]", "values": [
      {"measurement": "Ki", "setting": "Human 5-HT6 Receptor; [2]", "value": 5.81, "unit": "nM"},
      {"measurement": "melting point", "value": "258 to 261", "unit": "°C"}
    ]},
    {"compound": "CCN1CCN(Cc2ccc3c(ccn3S(=O)(=O)c3cccc(Cl)c3Cl)c2)CC1.Cl.Cl", "note": "[Compound 14, 1-(2,3-Dichlorobenzenesulfonyl)-5-(4-ethylpiperazin-1-ylmethyl)-1H-indole dihydrochloride]", "values": [
      {"measurement": "Ki", "setting": "Human 5-HT6 Receptor; [2]", "value": 5.52, "unit": "nM"},
      {"measurement": "melting point", "value": "273.5 to 277", "unit": "°C"}
    ]},
    {"compound": "CCN1CCN(Cc2ccc3c(ccn3S(=O)(=O)c3ccc(C)cc3)c2)CC1.Cl.Cl", "values": [
      {"measurement": "melting point", "value": "263 to 267", "unit": "°C"}
    ]},
    {"compound": "CN1CCN(Cc2ccc3c(ccn3S(=O)(=O)c3ccccc3Br)c2)CC1", "note": "[Compound 20, 1-(2-Bromobenzenesulfonyl)-5-(4-methylpiperazin-1-ylmethyl)-1H-indole]", "values": [
      {"measurement": "Ki", "setting": "Human 5-HT6 Receptor; [2]", "value": 8.3, "unit": "nM"}
    ]},
    {"compound": "CN(C)CCC=C1c2ccccc2CCc2ccccc21", "note": "[amitriptyline]", "values": [
      {"measurement": "affinity for the 5-HT6 receptor", "setting": "5-HT6 receptor", "value": "high affinity"}
    ]},
    {"compound": "CN1CCN(Cc2ccc3c(c2)c(Cl)cn3S(=O)(=O)c2ccc(F)cc2F)CC1.Cl.Cl", "note": "[Compound 26, 1-(2,4-Difluorobenzenesulfonyl)-3-chloro-5-(4-methylpiperazin-1-ylmethyl)-1H-indole dihydrochloride]", "values": [
      {"measurement": "Ki", "setting": "Human 5-HT6 Receptor; [2]", "value": 3.36, "unit": "nM"},
      {"measurement": "melting point", "value": "251.85 to 253", "unit": "°C"}
    ]},
    {"compound": "Cl.Cl.O=S(=O)(c1ccccc1)n1ccc2cc(CN3CCNCC3)ccc21", "note": "[Compound 33, 1-(Benzenesulfonyl)-5-(piperazin-1-ylmethyl)-1H-indole dihydrochloride]", "values": [
      {"measurement": "Ki", "setting": "Human 5-HT6 Receptor; [2]", "value": 2.52, "unit": "nM"},
      {"measurement": "melting point", "value": "250.4 to 256.2", "unit": "°C"}
    ]},
    {"compound": "CN1CCN(Cc2ccc3c(ccn3S(=O)(=O)c3ccc(Cl)cc3)c2)CC1", "note": "[Compound 22, 1-(4-Chlorobenzenesulfonyl)-5-(4-methylpiperazin-1-ylmethyl)-1H-indole]", "values": [
      {"measurement": "Ki", "setting": "Human 5-HT6 Receptor; [2]", "value": 3.02, "unit": "nM"}
    ]},
    {"compound": "CN1CCN(Cc2ccc3c(c2)c(Cl)cn3S(=O)(=O)c2ccc(Cl)cc2)CC1", "note": "[Compound 24, 1-(4-Chlorobenzenesulfonyl)-3-chloro-5-(4-methylpiperazin-1-ylmethyl)-1H-indole]", "values": [
      {"measurement": "melting point", "value": "139.2 to 140.4", "unit": "°C"}
    ]},
    {"compound": "CN1CCN(Cc2ccc3c(ccn3S(=O)(=O)c3cccc(Cl)c3Cl)c2)CC1", "note": "[Compound 21, 1-(2,3-Dichlorobenzenesulfonyl)-5-(4-methylpiperazin-1-ylmethyl)-1H-indole]", "values": [
      {"measurement": "Ki", "setting": "Human 5-HT6 Receptor; [2]", "value": 18, "unit": "nM"}
    ]},
    {"compound": "CCN1CCN(Cc2ccc3c(ccn3S(=O)(=O)c3cccc(C(F)(F)F)c3)c2)CC1.Cl.Cl", "values": [
      {"measurement": "melting point", "value": "265 to 270", "unit": "°C"}
    ]}
  ]
}
